Legend:
Dm-piRMT = molecular target: T1, Dm-piRMT (Drosophila melanogaster, UniProt Q7K175); assay: Metal ion requirement of piRMT methylation of ssRNA miR173.1 (NaIO4/β-elimination, PAG autoradiography); type: biochemical; design: modification efficiency towards RNA substrates with different 3′ terminal nucleotides (U, C, A, G): dose or concentration left out as unconfirmed
T1 sequence (Q7K175 1-391): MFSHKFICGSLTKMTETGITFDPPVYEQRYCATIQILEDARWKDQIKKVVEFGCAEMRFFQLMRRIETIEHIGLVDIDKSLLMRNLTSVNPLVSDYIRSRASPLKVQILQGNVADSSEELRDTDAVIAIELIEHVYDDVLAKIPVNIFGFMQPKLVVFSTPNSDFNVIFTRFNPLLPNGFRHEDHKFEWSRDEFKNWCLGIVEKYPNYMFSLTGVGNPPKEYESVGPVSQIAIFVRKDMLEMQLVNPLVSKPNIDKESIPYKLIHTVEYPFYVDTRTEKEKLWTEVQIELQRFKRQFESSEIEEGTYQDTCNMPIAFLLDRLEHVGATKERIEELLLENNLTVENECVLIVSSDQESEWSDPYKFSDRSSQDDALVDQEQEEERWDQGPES
Method: To test the requirement of different metal cofactors, 20 μl reaction volumes, containing reaction buffer [10 mM Tris-HCl (pH 7.4), 50 mM NaCl, 0.1 mg/ml BSA, 5% (v/v) glycerol and 0.05 u/μl RiboLock (Thermo Scientific)], 0.2 μM ^32P-labelled miR173.1 (5′-[…]-3′, 22 nt) (SEQ ID NO: 3), 0.1 mM AdoMet, […] After 30 min of incubation at 37° C., the degree of modification was determined by NaIO4/β-elimination reaction, during which RNA was treated with 0.2 mM NaIO4 in borax/boric acid buffer [0.06 M, pH 8.6] for 15 min followed by 75 min incubation in borax/boric acid buffer II [0.06 M pH 9.6] at 42° C. Reaction samples were analyzed in 13% denaturing polyacrylamide gel (PAG) and autoradiographed. Fractions of methylated RNA, represented by bands with lower electrophoretic mobility, were evaluated using Multi Gauge version 3.0 software (Fujifilm). The depletion of metal ions by EDTA in the reaction mixture, together with the sample without any metal cofactor added, further confirms that the effective piRMT methylation is due to Co^2+ and Co^3+ ions. B. Column-diagram of RNA methylation efficiency with different metal cofactors. Results are average of duplicate experiments±S.D.
B. Column-diagram of modification efficiency of miR173.1 with different 3′ terminal nucleotides. Results are average of two experiments±S.D.

Hs-piRMT [1] = molecular target: T2, Hs-piRMT (Homo sapiens, UniProt Q5T8I9); assay: as above; type: biochemical; settings: 10 mM metal ion, 1 μM piRMT, 0.2 μM miR173.1, 0.1 mM AdoMet, 30 min, 37° C.
Method: To test the requirement of different metal cofactors, 20 μl reaction volumes, containing reaction buffer [10 mM Tris-HCl (pH 7.4), 50 mM NaCl, 0.1 mg/ml BSA, 5% (v/v) glycerol and 0.05 u/μl RiboLock (Thermo Scientific)], 0.2 μM ^32P-labelled miR173.1 (5′-[…]-3′, 22 nt) (SEQ ID NO: 3), 0.1 mM AdoMet, 10 mM metal ion and 1 μM of piRMT proteins' were mixed. After 30 min of incubation at 37° C., the degree of modification was determined by NaIO4/β-elimination reaction, during which RNA was treated with 0.2 mM NaIO4 in borax/boric acid buffer [0.06 M, pH 8.6] for 15 min followed by 75 min incubation in borax/boric acid buffer II [0.06 M pH 9.6] at 42° C. Reaction samples were analyzed in 13% denaturing polyacrylamide gel (PAG) and autoradiographed. Fractions of methylated RNA, represented by bands with lower electrophoretic mobility, were evaluated using Multi Gauge version 3.0 software (Fujifilm). The depletion of metal ions by EDTA in the reaction mixture, together with the sample without any metal cofactor added, further confirms that the effective piRMT methylation is due to Co^2+ and Co^3+ ions. B. Column-diagram of RNA methylation efficiency with different metal cofactors. Results are average of duplicate experiments±S.D.

Hs-piRMT [2] = molecular target: T2, Hs-piRMT; settings: Mn2+ as metal cofactor; cited from earlier work

T2 sequence (Q5T8I9 whole entry): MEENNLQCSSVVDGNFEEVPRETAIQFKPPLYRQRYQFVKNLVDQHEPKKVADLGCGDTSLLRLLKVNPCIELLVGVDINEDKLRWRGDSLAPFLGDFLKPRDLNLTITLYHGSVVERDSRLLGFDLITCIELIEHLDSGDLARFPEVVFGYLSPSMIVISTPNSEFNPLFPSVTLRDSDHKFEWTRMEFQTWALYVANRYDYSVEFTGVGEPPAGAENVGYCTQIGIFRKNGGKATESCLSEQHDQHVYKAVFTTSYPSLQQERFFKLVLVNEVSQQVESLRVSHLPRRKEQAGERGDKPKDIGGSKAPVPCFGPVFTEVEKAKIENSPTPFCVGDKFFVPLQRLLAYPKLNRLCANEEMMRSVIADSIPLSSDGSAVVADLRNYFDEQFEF

Row | Structure (SMILES) | degree of methylation of ssRNA substrate with metal ion cofactor (Dm-piRMT; 10 mM metal ion, 1 μM piRMT, 0.2 μM miR173.1, 0.1 mM AdoMet, 30 min, 37° C.) | modification efficiency towards RNA substrates with different 3′ terminal nucleotides (U, C, A, G) (Dm-piRMT; Co2+ as metal cofactor, miR173.1 variants) | degree of methylation of ssRNA substrate with metal ion cofactor (Hs-piRMT [1]) | RNA modification level in presence of metal ion (Hs-piRMT [2])
1 | [Co+2] [Co^2+] | full methylation | equally effective modification | full methylation | –
2 | [Mn+2] [Mn^2+] | – | – | – | seemingly low levels

Reference: US11008605B2, “Analysis of single-stranded RNA” (VILNIUS UNIVERSITY, priority 2015, dated 2021)
